Active and inactive are the calls of the source. The rule behind the calls is not given here.
What was measured:
HT-29 [1] = assay: Antiproliferative activity against human HT-29 cells assessed as inhibition of cell proliferation at 25 uM after 72 hrs by MTT assay; assay type: functional; settings: HT-29, 72 h
HT-29 [2] = assay: Antiproliferative activity against human HT-29 cells assessed as inhibition of cell proliferation after 72 hrs by MTT assay; assay type: functional, cell-based; settings: for IC50: HT-29, 72 h
L132 = assay: Antiproliferative activity against human L-132 cells up to 25 uM after 72 hrs by MTT assay; assay type: cell-based; settings: l132, 72 h
HT-29 [3] = assay: Cytotoxicity against human HT-29 cells assessed as increase in cell death after 72 hrs by Propidium iodide staining-based flow cytometric analysis; assay type: functional
HT-29 [4] = assay: Cytotoxicity against human HT-29 cells assessed as cell death at 50 uM after 72 hrs by Propidium iodide staining-based flow cytometric analysis relative to control; assay type: functional
HT-29 [5] = assay: Cell cycle arrest in human HT-29 cells assessed as accumulation at S phase up to 10 uM after 48 hrs by propidium iodide/RNase staining based flow cytometric analysis; assay type: functional
HT-29 [6] = assay: Down regulation of survivin level in human HT-29 cells up to 25 uM after 48 hrs by Western blot analysis; assay type: functional, cell-based
HT-29 [7] = assay: Down regulation of COX-2 level in human HT-29 cells up to 25 uM after 48 hrs by Western blot analysis; assay type: functional, cell-based
HT-29 [8] = assay: Induction of apoptosis in human HT-29 cells assessed as increase in apoptotic body formation up to 25 uM after 72 hrs by calcein-AM/ethidium homodimer-1 staining-based fluorescence microscopic analysis; assay type: functional, cell-based
HT-29 [9] = assay: Cell cycle arrest in human HT-29 cells assessed as accumulation at S phase up to 7 uM after 48 hrs by propidium iodide/RNase staining based flow cytometric analysis; assay type: functional
HT-29 [10] = assay: Cell cycle arrest in human HT-29 cells assessed as accumulation at G2/M phase up to 15 uM after 48 hrs by propidium iodide/RNase staining based flow cytometric analysis; assay type: functional
HT-29 [11] = assay: Cell cycle arrest in human HT-29 cells assessed as accumulation at S phase up to 5 uM after 48 hrs by propidium iodide/RNase staining based flow cytometric analysis; assay type: functional
HT-29 [12] = assay: Cell cycle arrest in human HT-29 cells assessed as accumulation at G2/M phase up to 10 uM after 48 hrs by propidium iodide/RNase staining based flow cytometric analysis; assay type: functional
HT-29 [13] = assay: Cell cycle arrest in human HT-29 cells assessed as accumulation at G0/G1 phase up to 5 uM after 48 hrs by propidium iodide/RNase staining based flow cytometric analysis; assay type: functional

C[C@@H]1CC[C@H]2C(C)(C)[C@@H](O)CC[C@]2(C)C1(O)Cc1ccccc1O (some centres undefined)
inhibition at 25 µM (HT-29 [1]): -1.89%

CC1(C)CC[C@@H]2c3cc(O)ccc3C[C@]3(C)CCC[C@@H]1[C@H]23
Activity (HT-29 [2]): Dose-dependent effect
IC50 (HT-29 [2]): 16 µM
Activity (L132): Non-Toxic
Activity (HT-29 [3]): Dose-dependent effect
Activity (HT-29 [4]): >50%
Activity (HT-29 [5]): Active
Activity (HT-29 [6]): Active
Activity (HT-29 [7]): Active
inhibition at 25 µM (HT-29 [1]): 114%

COc1ccc(C[C@]2(O)CCC[C@H]3C(C)(C)[C@@H](O)CC[C@@]32C)cc1
inhibition at 25 µM (HT-29 [1]): -3.48%

Cc1ccc(C[C@]2(O)CCC[C@H]3C(C)(C)CCC[C@@]32C)cc1
inhibition at 25 µM (HT-29 [1]): 13%

CC(C)(C)c1ccc2c(c1)[C@H]1CCC(C)(C)[C@@H]3CCC[C@@](C)(C2)[C@@H]13
inhibition at 25 µM (HT-29 [1]): -1.89%

CC1(C)CC[C@@H]2c3cc(O)c(O)cc3C[C@]3(C)CCC[C@@H]1[C@H]23
Activity (HT-29 [2]): Dose-dependent effect
IC50 (HT-29 [2]): 7.5 µM
Activity (L132): Non-Toxic
Activity (HT-29 [3]): Dose-dependent effect
Activity (HT-29 [8]): Active
Activity (HT-29 [6]): Active
Activity (HT-29 [7]): Active
inhibition at 25 µM (HT-29 [1]): 142%
Activity (HT-29 [9]): Active

CC1(C)CC[C@@H]2c3ccc(O)c(O)c3C[C@]3(C)CCC[C@@H]1[C@H]23
Activity (HT-29 [2]): Dose-dependent effect
IC50 (HT-29 [2]): 16.5 µM
Activity (L132): Non-Toxic
Activity (HT-29 [3]): Dose-dependent effect
Activity (HT-29 [5]): Active
Activity (HT-29 [6]): Active
Activity (HT-29 [7]): Active
inhibition at 25 µM (HT-29 [1]): 118%

CC1(C)CC[C@@H]2c3cccc(O)c3C[C@]3(C)CCC[C@@H]1[C@H]23
inhibition at 25 µM (HT-29 [1]): 39.1%

COc1ccc(CC2(O)CCC[C@@H]3CCCC[C@@H]32)cc1 (some centres undefined)
inhibition at 25 µM (HT-29 [1]): 0.56%

CC1(C)CC[C@@H]2c3ccccc3C[C@]3(C)CCC[C@@H]1[C@H]23
inhibition at 25 µM (HT-29 [1]): 22.4%

CC1(C)CC[C@@H]2c3cc(O)ccc3C[C@@]3(C)[C@@H]2[C@H]1CCC3(C)C
Activity (HT-29 [2]): Dose-dependent effect
IC50 (HT-29 [2]): 15 µM
Activity (L132): Non-Toxic
Activity (HT-29 [3]): Dose-dependent effect
Activity (HT-29 [4]): >50%
Activity (HT-29 [8]): Active
Activity (HT-29 [6]): Active
Activity (HT-29 [7]): Active
inhibition at 25 µM (HT-29 [1]): 97.5%
Activity (HT-29 [10]): Active

O=c1[nH]cc(F)c(=O)[nH]1 [FLUOROURACIL]
Activity (HT-29 [2]): Dose-dependent effect
IC50 (HT-29 [2]): 6.5 µM
Activity (L132): Non-Toxic
Activity (HT-29 [3]): inactive
Activity (HT-29 [11]): Active

CC1(C)CC[C@@H]2c3ccc(O)cc3C[C@]3(C)CCC[C@@H]1[C@H]23
Activity (HT-29 [2]): Dose-dependent effect
IC50 (HT-29 [2]): 20.5 µM
Activity (L132): Non-Toxic
Activity (HT-29 [3]): Dose-dependent effect
Activity (HT-29 [4]): >50%
Activity (HT-29 [12]): Active
inhibition at 25 µM (HT-29 [1]): 112%

C[C@@H]1CC[C@@H]2C3=C(C[C@]4(C)CCC[C@@H]1[C@H]24)C(=O)C=CC3=O
Activity (HT-29 [2]): Dose-dependent effect
IC50 (HT-29 [2]): 8 µM
Activity (L132): Non-Toxic
Activity (HT-29 [3]): Dose-dependent effect
Activity (HT-29 [4]): >50%
Activity (HT-29 [13]): Active
Activity (HT-29 [8]): Active
Activity (HT-29 [6]): Active
Activity (HT-29 [7]): Active
inhibition at 25 µM (HT-29 [1]): 71.8%

CC1(C)CC[C@@H]2C3=C(C[C@]4(C)CCC[C@@H]1[C@H]24)C(=O)C=CC3=O
Activity (HT-29 [2]): Dose-dependent effect
IC50 (HT-29 [2]): 14.5 µM
Activity (L132): Non-Toxic
Activity (HT-29 [3]): Dose-dependent effect
Activity (HT-29 [4]): >50%
Activity (HT-29 [5]): Active
Activity (HT-29 [6]): Active
Activity (HT-29 [7]): Active
inhibition at 25 µM (HT-29 [1]): 124%

— ChEMBL document CHEMBL4308860, “Nature-inspired development of unnatural meroterpenoids as the non-toxic anti-colon cancer agents” (Eur J Med Chem, 2018)
